# Test results published in patent US20260053812A1, “METHODS OF TREATING HYPERTENSION WITH A COMBINATION OF AN ALDOSTERONE SYNTHASE INHIBITOR AND A DIURETIC” (Mineralys Therapeutics, Inc., priority 2022, published 2026).
# Test system: subjects with uncontrolled hypertension
# Assay: Seated automated office blood pressure (AOBP), randomized placebo-controlled dose-ranging study
# Format: in vivo, human
# Settings: for Automated office DBP, mean CFB at Week 8: Part 1
# Protocol: A randomized, double-blinded, placebo-controlled, dose-ranging, multicenter study was conducted to evaluate the effect of orally administered Compound A HBr on blood pressure for the treatment of hypertension in male and female subjects ≥18 years of age.
# The study consists of two parts. For enrollment into Part 1 of the study, a subject's value of plasma renin activity (PRA) must be ≤1 ng/mL/h based on morning measurement. If the value of PRA >1 ng/mL/h based on morning measurement, then subjects may be eligible to enter Part 2 of the study.
# For Part 1, 163 enrolled subjects ≥18 years of age were randomized into 6 equal treatment groups (1:1:1:1:1:1) to 12.5 mg BID, 25 mg BID, 12.5 mg QD, 50 mg QD, 100 mg QD, or placebo. After a review of interim clinical data, the 2 lowest dose levels (12.5 mg QD and 12.5 mg BID) were stopped for future randomization due to a lack of consistent meaningful reduction of blood pressure, but the patients randomized to that point remained in the study through completion. Thus, after the review of interim clinical data, subjects were randomized into 4 equal treatment groups (1:1:1:1) to 25 mg BID, 50 mg QD, 100 mg QD, or placebo.
# For Part 2, 36 enrolled subjects ≥18 years of age were randomized (5:1) to either 100 mg QD Compound A HBr or placebo such that the Compound A HBr treatment group consisted of approximately 30 subjects and the placebo treatment group will consist of approximately 6 subjects.
# Subjects orally administered the assigned study drug (Compound A HBr or placebo) according to the assigned dosing regimen for 8 weeks beginning on Study Day 1. All subjects in Part 1 (regardless of dosing group) received BID dosing to preserve the integrity of the blind; active drug is administered as the morning dose for all QD dose groups. Subjects returned to the research facility or were seen by the clinical investigator or approved home health care professional at the end of Study Weeks 1, 2, 3, 4, 5, 6, 7, and 8 (±2 days) for protocol-defined efficacy and safety assessments and procedures, assessment of adverse events (AEs), and confirmation of compliance with study drug usage. Subjects also completed a telephone visit and blood pressure (BP) check at home approximately 3 days post last dose of study drug. Subjects attended up to 14 full clinic visits, including a pre-Screening visit, a Screening/start of Placebo Run-in visit, a second visit during Placebo Run-in, a clinic visit to initiate the ABPM procedure, a Randomization visit, 8 weekly visits during double-blind treatment, and an end-of-study visit scheduled 4 weeks after the last study treatment for final efficacy and safety assessments.
# An automated oscillometric sphygmomanometer device was used to measure the subjects' systolic and diastolic blood pressure in office after approximately 5 minutes of rest in the seated position.
# The primary endpoint is the change in office-measured (mean of last 2 of 5 unattended measurements using an automated oscillometric sphygmomanometer device after approximately 5 minutes of rest in the seated position) systolic blood pressure (SBP) from baseline to the end of Study Week 8.
# Secondary endpoints of this study were: • (a) Change in 24-hour ambulatory blood pressure monitoring (ABPM) parameters (systolic and diastolic) from baseline to the end of Study Week 7. • (b) Change in office-measured SBP from baseline to the end of Study Weeks 1, 2, 3, 4, 5, 6, and 7. • (c) Change in office-measured diastolic blood pressure (DBP) from baseline to the end of Study Weeks 1, 2, 3, 4, 5, 6, 7, and 8. • (d) Proportion of subjects who achieve office-measured BP of ≤130/80 mm Hg by the end of Study Week 8.
# For AOBP measurements and any other clinical or laboratory variable for which there are replicate evaluations at the screening and baseline visits, baseline is defined as the mean of the last two non-missing values prior to first administration of the IMP for the double-blinded treatment period.
smiles,measurement,setting,value
CC(=O)N[C@H]1CC[C@H](NC(=O)CN2CCN(c3nncc(-c4ccc(C)cc4)n3)CC2)CC1 [Compound A HBr],"Placebo-corrected mean change in AOBP systolic BP, Full-analysis set","100 mg, Part-1 and Part-2 (interim) combined, N=58 active",−9.9 mmHg
same,"Automated office DBP, mean CFB at Week 8","12.5 mg BID, BMI <25 kg/m^2",6.00 mmHg
same,"Automated office DBP, mean CFB at Week 8","50 mg QD, Seated SBP Tertile Low",−2.42 mmHg
same,"Automated office DBP, mean CFB at Week 8","100 mg QD, BMI 25-30 kg/m^2",−6.50 mmHg
same,"Automated office DBP, mean CFB at Week 8","100 mg QD, Seated SBP Tertile Middle",−6.17 mmHg
same,"Automated office DBP, mean CFB at Week 8","100 mg QD, thiazide diuretic use at baseline No",−4.00 mmHg
same,Blood pressure reduction in individuals receiving a thiazide diuretic as background medication,observed across dosing cohorts,particularly effective
same,Blood pressure reduction in individuals with BMI greater than 30,observed across dosing cohorts,particularly effective
same,Subjects with change in BPsys >−15 mmHg,"pooled 50 mg QD, 100 mg QD, 12.5 mg BID, 25 mg BID cohorts (N=103), week 8",41%
